The source of these data is PubChem BioAssay (NCI).

The structures appear in SMILES notation.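 96-well plates; 48 h exposure; 5 concentrations. Endpoints by linear interpolation between flanking doses. Not reached: highest tested concentration assigned. GI50: concentration for 50% inhibition of growth. The concentration for full growth arrest is given as TGI.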 Where only a bound is given, the exact number is not on record here.

Some test systems named below: HCT-116 colon; BT-549 breast; SNB-75 CNS; HOP-92 NSCLC; MCF7 breast; COLO 205 colon; SK-MEL-2 melanoma; M14 melanoma; MDA-MB-435; MALME-3M melanoma.
Experiment in all cases: NCI anticancer screen, dose series, 48 h

On to `ClCc1ccc(Cn2cnc3c(Cl)ncnc32)cc1`, for which the GI50 was 10.4 µM with HCT-116 colon; 21.9 µM in the experiment with BT-549 breast; over 42 µM with SNB-75 CNS; 8.48 µM with HOP-92 NSCLC; 4.65 µM in the experiment with MCF7 breast; 13.7 µM in the experiment with COLO 205 colon. The GI50 in the experiment with SK-MEL-2 melanoma is 19.7 µM; in the experiment with M14 melanoma it was 9.84 µM; in the experiment on MDA-MB-435, 13 µM. In addition, the TGI was 17.4 µM in the experiment with HCT-116 colon; 45.8 µM with BT-549 breast; over 67 µM in the experiment with SNB-75 CNS; 39.9 µM in the experiment with HOP-92 NSCLC; 55.7 µM in the experiment on MCF7 breast; over 100 µM in the experiment on COLO 205 colon. For the same compound, the results for the TGI in the experiment with SK-MEL-2 melanoma, with M14 melanoma and in the experiment with MDA-MB-435 were over 92.8 µM, 19 µM and 23.3 µM, respectively.

Regarding `CCOc1ccc2c(c1)CN(Cc1ccc(Cl)cc1)CO2`, the GI50 with HCT-116 colon was 14.8 µM; with BT-549 breast, 17.6 µM; in the experiment on SNB-75 CNS, 15 µM; in the experiment on HOP-92 NSCLC, 8.63 µM; with MCF7 breast, 16.4 µM; with COLO 205 colon, 19 µM. Also, the GI50 was 18 µM in the experiment on SK-MEL-2 melanoma, 14.8 µM with MALME-3M melanoma and 15.2 µM in the experiment with MDA-MB-435. The TGI was 29 µM in the experiment with HCT-116 colon; 36.8 µM in the experiment on BT-549 breast; 45.8 µM with SNB-75 CNS; 36.8 µM in the experiment with HOP-92 NSCLC; 35.2 µM in the experiment with MCF7 breast; 36.1 µM in the experiment on COLO 205 colon. The TGI with SK-MEL-2 melanoma was found to be 34 µM; in the experiment with MALME-3M melanoma, 29.5 µM; with MDA-MB-435 it was 29.5 µM.

For `COc1ccc(Cn2cc3c(c2)-c2oncc2CC3)cc1OC`, the GI50 with HCT-116 colon is 0.193 µM; with BT-549 breast, 0.344 µM; in the experiment with SNB-75 CNS, 0.123 µM; with HOP-92 NSCLC it was 1.15 µM; in the experiment on MCF7 breast it was 0.191 µM; with COLO 205 colon, 0.134 µM. In addition, the GI50 in the experiment with SK-MEL-2 melanoma is 0.248 µM; in the experiment on M14 melanoma, 0.154 µM; in the experiment on MDA-MB-435, 0.0774 µM. In addition, the TGI in the experiment on HCT-116 colon was 8.57 µM; with BT-549 breast, over 50 µM; in the experiment with SNB-75 CNS, 0.761 µM; in the experiment with HOP-92 NSCLC, 36.3 µM; with MCF7 breast, over 41 µM; with COLO 205 colon, 0.346 µM. Further, the TGI in the experiment with SK-MEL-2 melanoma is 15.1 µM; in the experiment on M14 melanoma, 16 µM; in the experiment on MDA-MB-435 it was 0.235 µM.

In the case of `O=C(Nc1ccccc1C(F)(F)F)c1ccc(NC2=C(Cl)C(=O)N(Cc3ccccc3)C2=O)cc1`, the GI50 in the experiment on HCT-116 colon was 29.4 µM; in the experiment with BT-549 breast, 24 µM; in the experiment on SNB-75 CNS, 36.5 µM; with HOP-92 NSCLC, 11.3 µM; in the experiment with MCF7 breast, 7.33 µM; in the experiment on COLO 205 colon, 98.1 µM. Moreover, the GI50 in the experiment on SK-MEL-2 melanoma is 40.6 µM; in the experiment with M14 melanoma, 51.6 µM; in the experiment on MDA-MB-435, 51.5 µM. In addition, the TGI in the experiment with HCT-116 colon is over 100 µM; in the experiment with BT-549 breast, 58.3 µM; with SNB-75 CNS it was over 100 µM; with HOP-92 NSCLC, 35.2 µM; in the experiment on MCF7 breast, over 100 µM; with COLO 205 colon, over 100 µM. Moreover, the TGI in the experiment with SK-MEL-2 melanoma, with M14 melanoma and with MDA-MB-435 was over 100 µM throughout.

With `O=S(=O)(c1ccccc1)N1CN2CN(C1)CN(S(=O)(=O)c1ccccc1)C2`, the TGI in the experiment on HCT-116 colon is over 100 µM; with BT-549 breast it was over 100 µM; in the experiment on SNB-75 CNS, 66.1 µM; in the experiment on HOP-92 NSCLC, over 100 µM; in the experiment with MCF7 breast it was over 100 µM; in the experiment with COLO 205 colon it was over 100 µM. Further, the TGI in the experiment with SK-MEL-2 melanoma, with M14 melanoma and in the experiment on MDA-MB-435 was over 100 µM each time.

As to `CCCCCCCCCCCCCCCCCCOc1ccccc1CC(=O)OCC[N+](CC)(CC)CC`, the GI50 in the experiment with HCT-116 colon is 1.61 µM; in the experiment with BT-549 breast, 1.95 µM; with SNB-75 CNS, 0.968 µM; in the experiment on HOP-92 NSCLC it was 1.1 µM; in the experiment on MCF7 breast, 1.35 µM; in the experiment on SK-MEL-2 melanoma it was 1.28 µM. Moreover, the GI50 was 1.53 µM in the experiment with M14 melanoma, 1.31 µM in the experiment with MALME-3M melanoma and 1.55 µM with MDA-MB-435. In addition, the TGI amounted to 7.76 µM in the experiment with HCT-116 colon; 9.22 µM in the experiment with BT-549 breast; 4.23 µM in the experiment with SNB-75 CNS; 3.52 µM in the experiment on HOP-92 NSCLC; 5.25 µM in the experiment on MCF7 breast; 3.13 µM in the experiment with SK-MEL-2 melanoma. Also, the TGI in the experiment with M14 melanoma was 5.4 µM; in the experiment on MALME-3M melanoma, 3.77 µM; with MDA-MB-435, 6.2 µM.

As for `CCCCCCCCCC(CCCC(O)CC(=O)O)OC1OC(COC2OC(C)C(OC(C)=O)C(O)C2O)C(O)C(O)C1OC1OC(CO)C(O)C(O)C1OC1OC(C)C(OC(=O)CC(C)C)C(O)C1O` (stereo not drawn), the GI50 in the experiment with HCT-116 colon, in the experiment on BT-549 breast, in the experiment with SNB-75 CNS, in the experiment on MCF7 breast, with COLO 205 colon and in the experiment with M14 melanoma was over 35 µM in each case. In addition, the GI50 with MALME-3M melanoma and in the experiment on MDA-MB-435 was over 35 µM in each case. Besides, the TGI with HCT-116 colon, with BT-549 breast, in the experiment on SNB-75 CNS, in the experiment on MCF7 breast, in the experiment on COLO 205 colon and with M14 melanoma was over 35 µM in each case. Besides, the TGI in the experiment with MALME-3M melanoma and in the experiment on MDA-MB-435 was over 35 µM each time.

In the case of `N#Cc1ccccc1C#C/C=C\C#CC#C/C=C\C#Cc1ccccc1C#N`, the GI50 with HCT-116 colon was 13.6 µM; with BT-549 breast, 20.9 µM; with HOP-92 NSCLC, 10.4 µM; in the experiment on MCF7 breast, 47.4 µM; in the experiment on COLO 205 colon, 7.33 µM; with SK-MEL-2 melanoma it was 22.1 µM. The GI50 in the experiment on M14 melanoma is 11.3 µM; with MALME-3M melanoma, 14.6 µM; in the experiment with MDA-MB-435, 8.49 µM. Moreover, the TGI is 30.2 µM in the experiment on HCT-116 colon; over 100 µM in the experiment on BT-549 breast; over 100 µM in the experiment on HOP-92 NSCLC; over 100 µM in the experiment on MCF7 breast; 21.1 µM in the experiment with COLO 205 colon; 62.7 µM in the experiment on SK-MEL-2 melanoma. Besides, the TGI was found to be 35.5 µM in the experiment on M14 melanoma, 29.8 µM with MALME-3M melanoma and 26.4 µM with MDA-MB-435.
